Consider ten molecules from ChEMBL document CHEMBL1145709, “Seven New Polyacetylene Derivatives, Showing Both Potent Metamorphosis-Inducing Activity in Ascidian Larvae and Antifouling Activity Against Barnacle Larvae, from the Marine Sponge Callyspongia truncata” (1997).

In brackets after ≈: the same amount, converted by molar mass.

One experiment deals with Amphibalanus amphitrite. Nature of the experiment: Antifouling activity against Balanus amphitrite larvae. The experiment is classed as functional. The note with it: for EC50: Amphibalanus amphitrite, read-out: ED50 (the source's name).
The subject of the next experiment is Halocynthia roretzi. The experiment is described as follows: Induction of metamorphosis in ascidian Halocynthia roretzi. The format is functional. Conditions: for EC50: Halocynthia roretzi, read-out: ED50 (the source's name).

Consider `C#CC#CCCCC#CC#C/C=C\CCCC/C=C\C#C` [CALLYPENTAYNE], for which the EC50 with Amphibalanus amphitrite came out at 0.25 µg/mL (≈ 0.918 µM). Consider `C#C/C=C\CCCC/C=C\C#CC#CCCCC#CC#C[C@H](COS(=O)(=O)[O-])OS(=O)(=O)[O-].[Na+].[Na+]` [CALLYSPONGIN A], for which the EC50 in the experiment with Amphibalanus amphitrite came out at 0.13 µg/mL; with Halocynthia roretzi, 3.9 µg/mL. Take `C#C/C=C\CCCC/C=C\C#CC#CCCCC#CC#C[C@@H](O)COS(=O)(=O)[O-].[Na+]` [CALLYSPONGIN B]: the results for the ED100 with Amphibalanus amphitrite and in the experiment on Halocynthia roretzi were 0.25 µg/mL and 4.1 µg/mL, respectively.

As to `C#C/C=C\CCCC#CC#CCCCCCC/C=C\C#C` [CALLYTETRAYNE], the EC50 in the experiment with Amphibalanus amphitrite came to 0.25 µg/mL (≈ 0.904 µM); in the experiment on Halocynthia roretzi, 30 µg/mL (≈ 109 µM). In the case of `C#C/C=C\CCCC/C=C\C#CC#CC(O)CCC#CC#CC(O)CO` (centres undefined) [CALLYTRIOL A], the EC50 amounted to 1.3 µg/mL (≈ 3.73 µM) with Amphibalanus amphitrite and 0.43 µg/mL (≈ 1.23 µM) in the experiment with Halocynthia roretzi. For `C#C/C=C\CCCC(O)/C=C\C#CC#CCCCC#CC#CC(O)CO` (centres undefined) [CALLYTRIOL B] the same measures were 1.3 µg/mL (≈ 3.73 µM) and 0.63 µg/mL (≈ 1.81 µM). Take `C#C/C=C\C(O)CCC/C=C\C#CC#CCCCC#CC#CC(O)CO` (centres undefined) [CALLYTRIOL C]: the EC50 in the experiment with Amphibalanus amphitrite was determined as 0.13 µg/mL (≈ 0.373 µM); in the experiment with Halocynthia roretzi, 0.24 µg/mL (≈ 0.689 µM). For `C#C/C=C/C(O)CCC/C=C\C#CC#CCCCC#CC#CC(O)CO` (centres undefined) [CALLYTRIOL D], in that order: 1.3 µg/mL (≈ 3.73 µM) and 0.38 µg/mL (≈ 1.09 µM).

Take `C#C/C=C\CCCC(O)/C=C/C#CC#CCCCC#CC#CC(O)CO` (centres undefined) [CALLYTRIOL E]: the values for the EC50 with Amphibalanus amphitrite and in the experiment with Halocynthia roretzi were 0.13 µg/mL (≈ 0.373 µM) and 0.63 µg/mL (≈ 1.81 µM), respectively. For `C#C/C=C\CCCC/C=C\C#CC#CCCCC#CC#C[C@@H](O)CO` [SIPHONODIOL] the same measures were 0.25 µg/mL (≈ 0.752 µM) and 4.5 µg/mL (≈ 13.5 µM).
